{"source": "patent US12667103B2", "about": "“Methods and compositions comprising herbicidally active compounds and thiocyanate compounds for controlling weed growth” (MUSTGROW BIOLOGICS CORP., priority 2020, dated 2026)", "tested_on": "weed plants", "assay": "Field trial of weed control: individual weed plants counted on test plots after herbicide treatment", "format": "in vivo", "details": "for Incidence of weeds (average count of weed plants per test plot): MustGrow SCN 24.3 kg/acre", "experimental": "A total of 8 herbicide treatments were run in a field trial as follows:\nRT540®, Bayer CropScience contains 540 g/L of glyphosate as the active ingredient. MustGrow SCN consists of pure commercially purchased thiocyanate in powder form. RT540 and MustGrow SCN were diluted with 10 parts of water and applied using a backpack sprayer to each of the test plots located in central Saskatchewan at the rate indicated in Table 2. Each treatment consisted of triplicate experimental plots (4×20 ft). Weed plant growth was monitored by counting individual weed plants present on each of the test plots over a period of 5 weeks from application.", "data": [{"compound": "thiocyanate [MustGrow SCN]", "values": [{"measurement": "Incidence of weeds (average count of weed plants per test plot)", "setting": "week 1", "value": 8}, {"measurement": "Incidence of weeds (average count of weed plants per test plot)", "setting": "week 2", "value": 15}, {"measurement": "Incidence of weeds (average count of weed plants per test plot)", "setting": "week 3", "value": 75}, {"measurement": "Incidence of weeds (average count of weed plants per test plot)", "setting": "week 4", "value": 155}, {"measurement": "Incidence of weeds (average count of weed plants per test plot)", "setting": "week 5", "value": 174}]}, {"compound": "O=C(O)CNCP(=O)(O)O", "note": "[glyphosate, N-(phosphomethyl)glycine, reference compound]", "values": [{"measurement": "Effectiveness in limiting the incidence of weeds, in words", "setting": "under the conditions of this trial, RT540 0.1-1 L/acre", "value": "marginally effective"}]}]}
